# According to patent publication US20100204265A1 (priority 2009, published 2010):
# Tested on: ET (Huh-lucubineo-ET) cell line harboring I389luc-ubi-neo/NS3-3′/ET HCV replicon
# Experiment: Replicon assay (HCV replicon, luciferase readout)
# Type: cell-based
# Details: Hepatitis C virus
# Summary of the method: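 Compounds at 10-point 2-fold dilutions (overall 0.1 nM to […], 0.5% DMSO) were applied to ET cells carrying a luciferase-neo HCV replicon, seeded a day earlier. After 48-72 hours, luciferase-based % inhibition was fitted with a Hill equation for EC50, and parallel WST-1 readings gave TC50.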
row,Compound,EC50 [nM]
1,"Cc1ccc(F)c(C2=CCN(C(=O)c3nc4c(C(F)(F)F)cc(-c5ccoc5)cn4c3Cl)CC2)n1 [Compound 207, (3-Chloro-6-furan-3-yl-8-trifluoromethyl-imidazo[1,2-a]pyridin-2-yl)-(3-fluoro-6-methyl-3′,6′-dihydro-2′H-[2,4′]bipyridinyl-1′-yl)-methanone]",17900
2,"O=C(c1nc2c(C(F)(F)F)cc(-c3ccoc3)cn2c1Cl)N1CC=C(c2ncncc2F)CC1 [Compound 208, (3-Chloro-6-furan-3-yl-8-trifluoromethyl-imidazo[1,2-a]pyridin-2-yl)-[4-(5-fluoro-pyrimidin-4-yl)-3,6-dihydro-2H-pyridin-1-yl]-methanone]",312
3,"O=C(c1nc2c(C(F)(F)F)cc(-c3ccoc3)cn2c1Cl)N1CC=C(c2cc(F)ccn2)CC1 [Compound 209, (3-Chloro-6-furan-3-yl-8-trifluoromethyl-imidazo[1,2-a]pyridin-2-yl)-(4-fluoro-3′,6′-dihydro-2′H-[2,4′]bipyridinyl-1′-yl)-methanone]",399
4,"O=C(c1nc2c(C(F)(F)F)cc(-c3ccoc3)cn2c1Cl)N1CC=C(c2ccccn2)CC1 [Compound 210, (3-Chloro-6-furan-3-yl-8-trifluoromethyl-imidazo[1,2-a]pyridin-2-yl)-(3′,6′-dihydro-2′H-[2,4′]bipyridinyl-1′-yl)-methanone]",481
5,"N#Cc1cccnc1C1=CCN(C(=O)c2nc3c(C(F)(F)F)cc(-c4ccoc4)cn3c2Cl)CC1 [Compound 211, 1′-(3-Chloro-6-furan-3-yl-8-trifluoromethyl-imidazo[1,2-a]pyridine-2-carbonyl)-1′,2′,3′,6′-tetrahydro-[2,4′]bipyridinyl-3-carbonitrile]",1480
6,"O=C(c1nc2c(C(F)(F)F)cc(-c3ccoc3)cn2c1Cl)N1CC=C(/C=C/C2CC2)CC1 [Compound 212, (3-Chloro-6-furan-3-yl-8-trifluoromethyl-imidazo[1,2-a]pyridin-2-yl)-[4-(2-cyclopropyl-vinyl)-3,6-dihydro-2H-pyridin-1-yl]-methanone]",338
7,"O=C(c1nc2c(C(F)(F)F)cc(-c3ccoc3)cn2c1Cl)N1CC=C(C2=CCNC2)CC1 [Compound 213, (3-Chloro-6-furan-3-yl-8-trifluoromethyl-imidazo[1,2-a]pyridin-2-yl)-[4-(2,5-dihydro-1H-pyrrol-3-yl)-3,6-dihydro-2H-pyridin-1-yl]-methanone]",942
8,"O=C(c1nc2c(C(F)(F)F)cc(-c3ccccc3)cn2c1Cl)N1CC=C(c2nccs2)C1 [Compound 215, (3-Chloro-6-phenyl-8-trifluoromethyl-imidazo[1,2-a]pyridin-2-yl)-(3-thiazol-2-yl-2,5-dihydro-pyrrol-1-yl)-methanone]",32.2
9,"O=C(c1nc2c(C(F)(F)F)cc(-c3cccnc3)cn2c1Cl)N1CC=C(c2nccs2)C1 [Compound 216, (3-Chloro-6-pyridin-3-yl-8-trifluoromethyl-imidazo[1,2-a]pyridin-2-yl)-(3-thiazol-2-yl-2,5-dihydro-pyrrol-1-yl)-methanone]",111
10,"O=C(c1nc2c(C(F)(F)F)cc(C3=CCCCC3)cn2c1Cl)N1CC=C(c2nccs2)C1 [Compound 217, (3-Chloro-6-cyclohex-1-enyl-8-trifluoromethyl-imidazo[1,2-a]pyridin-2-yl)-(3-thiazol-2-yl-2,5-dihydro-pyrrol-1-yl)-methanone]",50.5
11,"O=C(c1nc2c(C(F)(F)F)cc(C3=CCNCC3)cn2c1Cl)N1CC=C(c2nccs2)C1 [Compound 218, [3-Chloro-6-(1,2,3,6-tetrahydro-pyridin-4-yl)-8-trifluoromethyl-imidazo[1,2-a]pyridin-2-yl]-(3-thiazol-2-yl-2,5-dihydro-pyrrol-1-yl)-methanone]",2000
12,"O=C(c1nc2c(C(F)(F)F)cc(-c3ccoc3)cn2c1Cl)N1CCC(c2ncccc2F)CC1 [Compound 219, (3-Chloro-6-furan-3-yl-8-trifluoromethyl-imidazo[1,2-a]pyridin-2-yl)-(3-fluoro-3′,4′,5′,6′-tetrahydro-2′H-[2,4′]bipyridinyl-1′-yl)-methanone]",65.1
